Consider five molecules from paper PMC12845422, “Characterization of a Novel Family of Contilisant + Belinostat Multitarget Small Molecules in Glioblastoma” (Pharmaceuticals, 2025).

The structures appear in SMILES notation. Values joined by “and” are separate entries in the source; they are usually repeats but may differ in a detail not shown here. Equal entries are not always repeated. “Also recorded” adds a separate entry of the source.

Series [1] has as its system RWP1 pancreatic cancer cells. Nature of the series: MTT cell viability, RWP1. The note with it: MSM 0–10 μM. The series is classed as cell-based. The procedure: (§1) Cells were seeded at a density of 1.5 × 10^3 cells/well (conventional cell lines) or 5 × 10^3 cells/well (GNS and NHA) in 96-well plates and incubated overnight. Cells were then treated with increasing concentrations of MSMs. After 72 h, cells were incubated for 3.5 h with MTT, after which absorbance at 570 nm was measured. IC50 values were calculated using GraphPad Prism software.

Series [2] has as its system Normal Human Astrocytes (NHAs). Nature of the series: MTT cell viability, normal human astrocytes. The series is classed as cell-based. Particulars: Astrocyte, MSM 0–100 μM, 72 h, read-out: IC50 in NHA. The method, then:
as §1

Series [3] deals with U87-MG cells. Nature of the series: MTT cell viability, U87-MG. In kind it is cell-based. The note with it: Homo sapiens, U-87 MG, 72 h. The method, then: as §1
Series [4] concerns H1299 lung cancer cells. Nature of the series: MTT cell viability, H1299. In kind it is cell-based. Particulars: Homo sapiens, NCI-H1299; MSM 0–10 μM. The method, then:
as §1

In series [5] the test system is MKN45 gastric cancer cells. Kind of series: MTT cell viability, MKN45. The series is classed as cell-based. The note with it: Homo sapiens, MKN-45; MSM 0–10 μM. The method, then:
as §1

Series [6] concerns subcutaneous tumors. Kind of series: In vivo carcinogenesis assay, combination with TMZ. Set-up: species or system mice. The method, then: (§2) Subcutaneous tumor growth was initiated by injecting 5 × 10^5 cells into both hind flanks of athymic nude-Foxn1^nu mice. Once the tumors reached 25–50 mm^3, mice were allocated to treatment groups by gender and tumor size. For monotherapy, mice were treated intratumorally with vehicle (DMSO dilution) or 200 µM of MTP150 or intraperitoneally with 15 mg/kg, on a 5-days-on, 2-days-off schedule. In combination therapy, 0.5 mg/Kg TMZ or vehicle was administered intraperitoneally during the first 5 days; intratumoral MTP150 or vehicle was delivered with the same schedule. After 4 weeks, mice were sacrificed and tumors were extracted.

Series [7] concerns GNS166 cells. Nature of the series: Western blot of acetylated α-tubulin and acetylated H3, GNS166. Particulars: increasing concentrations. The series is classed as cell-based. The method, then: (§3) Sodium dodecyl sulfate-polyacrylamide gel electrophoresis was performed. Primary antibodies against HDAC1 (Abcam, Waltham, MA, USA) and HDAC6 (Cell Signaling, Danvers, MA, USA), along with their downstream targets, acetylated H3 (Cell Signaling) and acetylated α-tubulin (Abcam), were used. β-actin (Sigma-Aldrich) served as endogenous control. Secondary antibodies conjugated to horseradish peroxidase (anti-rabbit or anti-mouse; Cell Signaling) were applied. Proteins were detected using the iBright imaging system and either NOVEX ECL Chemi Substrate or SuperSignal West Femto Maximum Sensitivity Substrate (ThermoFisher, Waltham, MA, USA).
A general note: Immunoblotting shows a protein as a band on a membrane.

Series [8] deals with GNS179 cells. Nature of the series: Immunofluorescence proliferation / apoptosis, GNS179. The note with it: dose-dependent. In kind it is cell-based. The method, then: (§4) For immunofluorescence assays, cells were seeded at a density of 2 × 10^4 cells/well in 8-well immunofluorescence chambers (LabTek Thermo, Waltham, MA, USA) and incubated overnight. Following 48 h of treatment, cells were fixed with 4% PFA. Primary antibodies against phospho-Histone H3 (p-H3, Abcam) and Caspase 3 (R&D Systems, Minneapolis, MN, USA) and secondary antibodies Alexa Fluor anti-mouse and anti-rabbit (Invitrogen, Carlsbad, CA, USA) were used. Nuclei were stained with DAPI (Sigma-Aldrich). Images were acquired using an Axio Observer 7 epifluorescence microscope, and quantification was performed with Qupath software version 0.6.0.

Series [9] concerns U87-MG cells. Nature of the series: Western blot of acetylated α-tubulin and acetylated H3, U87-MG. The note with it: 0.5, 1 and 10 µM. The series is classed as cell-based. The method, then: as §3
Series [10] has as its target BChE (Homo sapiens, UniProt P06276). Nature of the series: BChE inhibition, Ellman's colorimetric method.
Procedure: To assess ChEs inhibition, Ellman’s colorimetric method was followed. […] After incubation, the substrate solution (acetylthiocholine or butyrylthiocholine iodide, Sigma-Aldrich, at 1.5 mM) was added, and absorbance was recorded at 405 nm every minute for 10 min. […] Enzyme kinetics were evaluated with varying substrate and inhibitor concentrations, and the results were plotted as Lineweaver–Burk plots using GraphPad Prism software. The inhibition constant (Ki) was estimated from the intersection on the x-axis in secondary plots.
The target of series [11] is T1, recombinant hMAO-B (Homo sapiens, UniProt P27338).
T1 sequence (P27338 1-520): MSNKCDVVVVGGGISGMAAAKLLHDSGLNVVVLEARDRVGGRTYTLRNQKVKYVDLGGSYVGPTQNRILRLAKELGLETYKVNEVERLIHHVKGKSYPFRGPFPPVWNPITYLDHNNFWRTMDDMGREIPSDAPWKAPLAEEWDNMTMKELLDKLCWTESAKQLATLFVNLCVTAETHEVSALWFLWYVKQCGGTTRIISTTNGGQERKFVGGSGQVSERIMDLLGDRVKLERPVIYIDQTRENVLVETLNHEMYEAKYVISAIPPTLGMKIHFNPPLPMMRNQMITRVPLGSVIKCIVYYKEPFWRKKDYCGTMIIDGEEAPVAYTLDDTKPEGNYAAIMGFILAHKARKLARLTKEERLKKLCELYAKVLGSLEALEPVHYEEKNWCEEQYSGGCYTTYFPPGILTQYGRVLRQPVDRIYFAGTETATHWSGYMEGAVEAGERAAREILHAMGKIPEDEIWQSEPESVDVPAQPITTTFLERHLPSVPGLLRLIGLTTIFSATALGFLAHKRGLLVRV
Kind of series: MAO-B inhibition assay. In kind it is biochemical. Particulars: 30 min preincubation, 37 °C. The procedure: Subsequently, 200 U/mL horseradish peroxidase, 20 mM Ampliflu Red and 100 mM tyramine hydrochloride (Sigma-Aldrich) were added, and absorbance was measured at 570 nm every 5 min for 30 min. The inhibition percentage was calculated from these absorbance values.

Series [12] has as its system U251-MG cells. Nature of the series: MTT cell viability, U251-MG. In kind it is cell-based. The method, then:
as §1

The test system of series [13] is U87-MG subcutaneous tumors. Kind of series: In vivo carcinogenesis assay, monotherapy, subcutaneous U87-MG tumors. Set-up: species or system mice. The method, then: as §2
Series [14] is described as follows: In vivo toxicity assay. The note with it: intraperitoneal, 15 mg/kg. The procedure: Briefly, 15 mg/kg of MTP150 or vehicle (DMSO) was administered intraperitoneally to athymic nude-Foxn1^nu mice on a 5-days-on, 2-days-off schedule. Body weight was monitored to assess MSM potential toxicity. At the end-point, macroscopic analysis of the different organs was carried out.

For series [15], the system named is GNS179 patient-derived GSCs. Kind of series: MTT cell viability, GNS179. The series is classed as cell-based. The method, then:
as §1

The nature of series [16]: Cell viability (MTT) of TMZ and MTP150 alone and combined. The series is classed as cell-based. Particulars: 250 µM TMZ, 0.5 µM MTP150, 72 h. The method, then: as §1
The test system of series [17] is GNS166 cells. Nature of the series: Cell cycle analysis by flow cytometry. In kind it is cell-based. Particulars: 5 μM. The method, then:
Cells were harvested using accutase and washed with PBS. Then, 1·10^6 cells were fixed with 70% cold ethanol at −20 °C for at least 24 h, and incubated with 0.5% Triton X-100 and 25 µg/mL RNase A in PBS for 30 minutes at room temperature. Then, DNA was stained with 25 ng/mL propidium iodide for 15 minutes and samples were analyzed using a CytoFLEX flow cytometer (Beckman Coulter Co., Brea, CA, USA).
(A flow cytometer gives signals particle by particle.)

For series [18], the system named is U251-MG cells. Nature of the series: Immunofluorescence proliferation / apoptosis, U251-MG. The note with it: dose-dependent. In kind it is cell-based. The method, then:
as §4

The test system of series [19] is MKN45, RWP1 and H1299 cancer cells. Kind of series: MTT cell viability, summary over gastric, pancreatic and lung cancer cells. In kind it is cell-based. The note with it: range over the three cell lines; read-out: IC50 range across MKN45, RWP1 and H1299. The procedure: as §1
Series [20] has as its system HDAC1. Set-up: method as in PMID 40109740. Particulars: read-out: HDAC inhibitory activity HDAC1 (IC50); cited from earlier work.
Series [21] deals with HDAC6. Set-up: method as in PMID 40109740. Particulars: read-out: HDAC inhibitory activity HDAC6 (IC50); cited from earlier work.
Setting [22] is: intraperitoneal treatment, immunohistochemistry at end-point.
Where [23] appears, read: intratumoral, immunohistochemistry at end-point.

Chain of BChE (P06276 29-602, species assumed): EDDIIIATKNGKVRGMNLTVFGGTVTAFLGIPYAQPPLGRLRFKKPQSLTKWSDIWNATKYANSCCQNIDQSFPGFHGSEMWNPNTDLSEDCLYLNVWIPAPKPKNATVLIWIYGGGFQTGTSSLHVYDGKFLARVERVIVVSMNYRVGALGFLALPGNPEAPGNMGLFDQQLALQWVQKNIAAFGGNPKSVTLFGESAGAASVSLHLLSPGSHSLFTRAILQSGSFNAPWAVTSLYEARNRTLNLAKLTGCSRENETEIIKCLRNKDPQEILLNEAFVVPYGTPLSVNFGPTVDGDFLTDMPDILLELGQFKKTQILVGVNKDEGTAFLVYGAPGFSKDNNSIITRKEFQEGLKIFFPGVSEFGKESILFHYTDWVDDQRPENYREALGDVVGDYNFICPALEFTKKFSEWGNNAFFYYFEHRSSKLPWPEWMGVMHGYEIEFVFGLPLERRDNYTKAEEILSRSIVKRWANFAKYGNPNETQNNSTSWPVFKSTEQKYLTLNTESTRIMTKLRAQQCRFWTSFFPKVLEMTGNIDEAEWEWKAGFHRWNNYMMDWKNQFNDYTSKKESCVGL

The IC50 is the concentration at which inhibition is half-maximal. With `COc1ccc2c(ccn2S(=O)(=O)c2cccc(/C=C/C(=O)NO)c2)c1` [MTP142], the concentration for half-maximal inhibition (IC50) in [1] stood at 0.97 µM; in series [2], 9.78 µM; in series [3], 3.22 µM; in series [4] it was 5.64 µM; in [5], 3.27 µM.
`Cn1nnc2c(C(N)=O)ncn2c1=O` [TMZ, temozolomide, reference compound]: the average tumor volume in [6] (TMZ 0.5 mg/Kg i.p. first 5 days, intratumoral MTP150 or vehicle) is ~ 580 mm^3.
Broadly, the Ki is a measure of affinity in units of concentration, obtained from inhibition or displacement. What is called inhibition is how much of the control response was suppressed. Broadly, the viability is a per cent measure of how many cells are alive, often set against a control. Take `O=C(/C=C/c1cccc(S(=O)(=O)n2ccc3cc(OCCCN4CCCCC4)ccc32)c1)NO` [MTP150]: the “levels of acetylated α-tubulin and acetylated H3” value in [7] is “higher levels of acetylated α-tubulin and H3 than both Belinostat and SAHA”; in [9], “highest levels of acetylated proteins; also recorded: higher levels of acetylated α-tubulin and H3 than both Belinostat and SAHA”. Further, the “apoptosis (Caspase 3-positive cells)” value in [8] and in series [18] was “increased” throughout. Besides, the “proliferation (p-H3- and Ki67-positive cells)” value in [8] and in [18] was “reduced” in each case. Also, the IC50 in series [10] came to 8.09 µM; in series [1], 0.1 µM; in series [2], 5.72 µM; in series [11] it was 1.5 µM; in series [12] (Homo sapiens, U-251, MTT) it was 1.02 µM; in series [12] (MTT), 1 µM. For the same molecule, the concentration for half-maximal inhibition (IC50) in [3] was 0.55 µM; in series [4], 0.7 µM; in series [15], 6.03 µM and 6 µM; in series [5], 0.2 µM; in series [19], 0.1 to 0.7 µM. In series [10], the Ki was 2.51 µM. In addition, in series [10] (Lineweaver–Burk plot), the BChE inhibition mechanism result is given as “mixed inhibition mechanism”. For the same molecule, in [10] (read-out: BChE inhibition), the inhibition at 10 µM amounted to 60%. In addition, the “oncospheres generated by cells dissociated from treated tumors” value in series [13] (10 days in the absence of treatment) is listed as “significantly fewer oncospheres”. For the same molecule, the average tumor volume in [13] (intraperitoneal treatment, U87-MG subcutaneous tumors) was ~ 270 mm^3; in series [13] (intratumoral 200 µM), ~ 480 mm^3. For the same molecule, the “acetyl-α-tubulin and acetyl H3 staining in tumors” value in series [13] (setting [22]) is recorded as “promotes an increase in both”. Besides, the “cleaved Caspase 3 staining in tumors” value in series [13] (setting [22]) was “increase in apoptosis”. In addition, in series [13] (intratumoral 200 µM), the “reduction in final tumor volume vs control” value is ~ 50%. The “tumor weight, lower mass than controls” value in series [13] (intratumoral 200 µM, end-point day 39) is listed as more than 40%. In addition, the “PCNA positive cells in resected tumors” value in [13] (setting [23]) is reported as “fewer PCNA positive cells”. In addition, the “cleaved Caspase 3 in resected tumors” value in [13] (setting [23]) is on record as “increased cleaved Caspase 3”. Further, in series [13] (relative tumor inhibition), the “tumor inhibition compared with Belinostat” value is “more intense tumor inhibition”. Further, in series [6] (monotherapy and combination with TMZ), the “antitumor activity compared with Belinostat” value is “greater antitumor activity”. Also, the “animal body weight compared to controls” value in series [14] (5-days-on 2-days-off, 4 weeks) is listed as “did not produce any significant changes in animal body weight”. Moreover, the “macroscopic analysis of post-mortem tissues” value in [14] (end-point) is reported as “did not show clear differences”. Moreover, the viability at 72 h in [16] was 37%. Moreover, the cell cycle alterations entry in series [17] was “accumulation of cells in the subG0 phase”.
On to `O=C(/C=C/c1cccc(S(=O)(=O)Nc2ccccc2)c1)NO` [Belinostat], for which, in [17], the cell cycle alterations result is “accumulation of cells in the subG0 phase”.
Take `O=C(/C=C/c1cccc(S(=O)(=O)n2ccc3cc(OCc4ccccc4)ccc32)c1)NO` [MTP156]: the half-inhibitory concentration (IC50) in series [20] is 0.21 µM; in [1], 1.17 µM; in series [2], 7.69 µM; in [3] it was 3.13 µM; in [21], 0.33 µM; in [4] it was 6.63 µM. Besides, in series [5], it took 5.74 µM to reach half-maximal inhibition (IC50). The cell cycle alterations entry in series [17] was “accumulation of cells in the subG0 phase”.
